According to ChEMBL document CHEMBL1201862, “PubChem BioAssay data set” (2004):
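Tested at 5 concentrations; 48 h exposure; 96-well plates; endpoints linearly interpolated, else capped at highest concentration. GI50 is the concentration that inhibits growth by half.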 Active and inactive are the calls of the source. Cut-off read from the data, not from the text of the source: active = GI50 up to about 1.1 µM and inactive = higher.

Tests used:
Test in all cases: NCI-60 cell line screen, 48 h
SK-OV-3 = tested on: SK-OV-3
HOP-92 = tested on: HOP-92
A549 = tested on: A549
SNB-19 = tested on: SNB-19
LOX IMVI = tested on: LOX IMVI
HT-29 = tested on: HT-29
RXF 393 = tested on: RXF 393
786-0 = tested on: 786-0
SK-MEL-2 = tested on: SK-MEL-2
SNB-75 = tested on: SNB-75
DU-145 = tested on: DU-145
OVCAR-5 = tested on: OVCAR-5
SR = tested on: SR
EKVX = tested on: EKVX
SF-539 = tested on: SF-539
HCC 2998 = tested on: HCC 2998
UACC-257 = tested on: UACC-257
HCT-116 = tested on: HCT-116
HOP-62 = tested on: HOP-62
SF-268 = tested on: SF-268
HCT-15 = tested on: HCT-15
UACC-62 = tested on: UACC-62
IGROV-1 = tested on: IGROV-1
MDA-MB-435 = tested on: MDA-MB-435
SN12C = tested on: SN12C
SK-MEL-28 = tested on: SK-MEL-28
TK-10 = tested on: TK-10
UO-31 = tested on: UO-31
ACHN = tested on: ACHN
A498 = tested on: A498
SF-295 = tested on: SF-295
HL-60 = tested on: HL-60
M14 = tested on: M14
Hs-578T = tested on: Hs-578T
Malme-3M = tested on: Malme-3M
CAKI-1 = tested on: CAKI-1
U-251 = tested on: U-251
MCF7 = tested on: MCF7
SW-620 = tested on: SW-620
BT-549 = tested on: BT-549
KM12 = tested on: KM12
NCI-H522 = tested on: NCI-H522
OVCAR-3 = tested on: OVCAR-3
CCRF-CEM = tested on: CCRF-CEM
MDA-N = tested on: MDA-N
NCI-H460 = tested on: NCI-H460
T47D = tested on: T47D
RPMI-8226 = tested on: RPMI-8226
PC-3 = tested on: PC-3
NCI-H23 = tested on: NCI-H23
MDA-MB-231 = tested on: MDA-MB-231
MOLT-4 = tested on: MOLT-4
NCI/ADR-RES = tested on: NCI/ADR-RES
SK-MEL-5 = tested on: SK-MEL-5
K562 = tested on: K562
COLO 205 = tested on: COLO 205
OVCAR-4 = tested on: OVCAR-4
NCI-H226 = tested on: NCI-H226
OVCAR-8 = tested on: OVCAR-8

Measured: GI50

OC(C1=C/C(=C\c2ccncc2)c2ccccc21)c1ccncc1 (stereo unspecified)
16.5 µM: HCT-15
inactive: SK-OV-3 13.8 µM | HOP-92 13.6 µM | A549 13.3 µM | SNB-19 19.1 µM | LOX IMVI 12.1 µM | HT-29 11.8 µM | RXF 393 14 µM | 786-0 12.9 µM | SK-MEL-2 14.3 µM | SNB-75 5.85 µM | DU-145 17 µM | OVCAR-5 15.8 µM | SR 5.4 µM | EKVX 5.65 µM | SF-539 13.9 µM | HCC 2998 8.39 µM | UACC-257 6.34 µM | HCT-116 13.6 µM | HOP-62 10.2 µM | SF-268 18.5 µM | UACC-62 9.16 µM | IGROV-1 14.4 µM | MDA-MB-435 12 µM | SN12C 13.9 µM | SK-MEL-28 14.3 µM | TK-10 13.6 µM | UO-31 8.99 µM | ACHN 14.8 µM | A498 12.9 µM | SF-295 8.65 µM | HL-60 1.66 µM | M14 12.4 µM | Hs-578T 12.2 µM | Malme-3M 15.1 µM | CAKI-1 7.83 µM | U-251 14.7 µM | MCF7 9.86 µM | SW-620 23 µM | BT-549 19 µM | KM12 15.6 µM | NCI-H522 9.48 µM | OVCAR-3 11.1 µM | CCRF-CEM 7.41 µM | MDA-N 10.8 µM | NCI-H460 12.9 µM | T47D 4.38 µM | RPMI-8226 2.37 µM | PC-3 10.8 µM | NCI-H23 12.4 µM | MDA-MB-231 6.98 µM | MOLT-4 5.71 µM | NCI/ADR-RES 14.6 µM | SK-MEL-5 3.21 µM | K562 4.72 µM | COLO 205 14.5 µM | OVCAR-4 12.4 µM | NCI-H226 13.6 µM | OVCAR-8 22.2 µM

OCc1ccccc1O[C@H]1O[C@H](CO)[C@@H](O)[C@H](O)[C@H]1O
inactive: SK-OV-3 > 100 µM | HOP-92 > 100 µM | A549 > 100 µM | LOX IMVI > 100 µM | HT-29 > 100 µM | RXF 393 > 100 µM | 786-0 > 100 µM | SK-MEL-2 > 100 µM | SNB-75 > 100 µM | DU-145 > 100 µM | OVCAR-5 > 100 µM | SR > 10 µM | EKVX > 100 µM | SF-539 > 100 µM | HCC 2998 > 100 µM | UACC-257 > 100 µM | HCT-116 > 100 µM | HOP-62 > 100 µM | SF-268 > 100 µM | UACC-62 > 100 µM | IGROV-1 > 100 µM | MDA-MB-435 > 100 µM | SN12C > 100 µM | SK-MEL-28 > 100 µM | TK-10 > 100 µM | UO-31 > 100 µM | ACHN > 100 µM | A498 > 100 µM | SF-295 > 100 µM | HL-60 > 100 µM | M14 > 100 µM | Hs-578T > 100 µM | Malme-3M > 100 µM | CAKI-1 > 100 µM | U-251 > 100 µM | MCF7 > 100 µM | SW-620 > 100 µM | BT-549 > 100 µM | KM12 > 100 µM | NCI-H522 > 100 µM | OVCAR-3 > 100 µM | CCRF-CEM > 100 µM | MDA-N > 100 µM | NCI-H460 > 100 µM | T47D > 100 µM | RPMI-8226 > 100 µM | PC-3 > 100 µM | NCI-H23 > 100 µM | MDA-MB-231 > 100 µM | MOLT-4 > 100 µM | NCI/ADR-RES > 100 µM | SK-MEL-5 > 100 µM | COLO 205 > 100 µM | OVCAR-4 > 100 µM | NCI-H226 > 100 µM | OVCAR-8 > 100 µM
> 100 µM: HCT-15
